How the values were obtained:
[1] = Expert taster comparison with and without Amadori compound, vanilla flavored milk; conditions: expert tasters (5-7)
Method: (§1) The following formulations were prepared with and without Amadori compound and tasted by expert tasters (5-7) and compared. The Amadori compound was dosed in the consumable with no additional heating required.

[2] = Expert taster comparison with and without Amadori compound, chocolate flavored milk; conditions: 5% sugar, 0.05% carrageenan, expert tasters (5-7)
Method: as §1

[3] = Expert taster comparison with and without Amadori compound, almond milk; conditions: 2 ppb; base: commercially available sweetened vanilla almond milk; expert tasters (5-7)
Method: as §1

[4] = Expert taster comparison with and without Amadori compound, strawberry flavored yoghurt; conditions: base: 1.7% fat, 4% sugar, strawberry flavor 0.1%, expert tasters (5-7)
Method: as §1
Strawberry Flavored Yoghurt

[5] = Expert taster comparison with and without Amadori compound, plain low fat yoghurt; conditions: base: 1.5% fat, 5% sugar, expert tasters (5-7)
Method: as §1

[6] = Expert taster comparison with and without Amadori compound, ice cream; conditions: 10 ppb; base: 14.31% heavy whipping cream, 77.60% whole milk, 8% sucrose, 0.009% vanillin; expert tasters (5-7)
Method: as §1

[7] = Expert taster comparison with and without Amadori compound, cream filling; conditions: 10 ppb; base: 66.4% sucrose, 32% palm oil, 0.2% salt, 0.4% vanilla extract, 1% water; expert tasters (5-7)
Method: as §1

[8] = Expert taster comparison with and without Amadori compound, cheese sauce; conditions: 10 ppm, expert tasters (5-7)
Method: as §1
Base: 33.46% Maltodextrin 10DE; 29.00% Starch Ultrasphere 2000; 10.00% Cheddar Cheese (white); 9.00% non-fat milk powder; 6.20% Whey; 5.00% canola shortening powder; 4.25% salt, 40 mesh; 0.35% yeast extract powder; 0.10% citric acid; 0.10% lactic acid; 2.54% cheese flavor.

O=C(O)C1CCCN1CC1(O)OCC(O)C(O)C1O (centres unmarked)
taste/mouthfeel compared with base ([1]; 0.1 ppb, base: 2% milk fat, 4% sugar, 0.2% vanilla extract): sweeter linger, more powdery, more fatty body, full and creamy, more dairy impact, creamier mouthfeel, slight waxy mouthfeel
taste/mouthfeel compared with base ([1]; 1 ppb, base: 2% milk fat, 4% sugar, 0.2% vanilla extract): sweeter, increase fullness, creamier mouthfeel, more dairy, slight waxy mouthfeel
taste/mouthfeel compared with base ([1]; 20 ppm, base: half full milk, 5% sugar, 0.1% vanillin): slightly fuller, richer than base, fuller like fat, sweeter
taste/mouthfeel compared with base ([1]; δ ppm, base: 2% fat milk, 4% sugar, 0.15% vanilla flavor): sweeter, more rich creamy, slightly sweeter, juicy, slight metallic and mouth drying
taste/mouthfeel compared with base ([2]; 0.1 ppb, base: 2% milk fat, 2% cocoa powder): creamy, full, richer chocolate, slight waxy, more cocoa impact
taste/mouthfeel compared with base ([2]; 1 ppb, base: 2% milk fat, 2% cocoa powder): more chocolate linger, more chocolate, more complex, full mouthfeel, sweeter impression, thicker, waxy, slight tingle
taste/mouthfeel compared with base ([2]; 10 ppm, base: 2% fat milk, 20/cocoa powder): more rich, more body, more real chocolate profile, slight increase in bitterness
taste/mouthfeel compared with base [3]: more creamy, stronger vanilla flavor, more body, more creamy mouthfeel; sweeter and more salty
taste/mouthfeel compared with base ([4]; 1 ppb): hardly any effect noticed
taste/mouthfeel compared with base ([4]; 10 ppb): sweeter, more creamy, richer mouthfeel, more fruity
taste/mouthfeel compared with base ([5]; 5 ppm): less sour, sweeter, creamy
taste/mouthfeel compared with base ([5]; 10 ppm): increase upfront sweet, less sour
taste/mouthfeel compared with base ([5]; 25 ppm): metallic linger, increase overall and upfront sweet
taste/mouthfeel compared with base [6]: more creamy, sweeter, slightly more body and mouth round effect, slightly more milk fat taste
taste/mouthfeel compared with base [7]: more fatty and creamy, sweeter and more salty, more buttery profile
taste/mouthfeel compared with base [8]: denser, cheesier, smooth, saltier, creamier mouthfeel, fresher dairy note, rich, slight metallic and astringent

O=C(O)[C@H](Cc1c[nH]cn1)NCC(=O)[C@@H](O)[C@H](O)[C@H](O)CO [Fru-His, N-(1-deoxy-D-fructose-1-yl)-L-histidine]
taste/mouthfeel compared with base [8]: more cheesy, slight acidic, aged, meaty, tingling, chalky, increased mouthfeel, creamier

CC[C@H](C)[C@H](NCC(=O)[C@@H](O)[C@H](O)[C@H](O)CO)C(=O)O [Fru-Ileu, N-(1-deoxy-D-fructose-1-yl)-L-isoleucine]
taste/mouthfeel compared with base [8]: slight acidic, bitter, creamier, increased saltiness

CSCC[C@H](NCC(=O)[C@@H](O)[C@H](O)[C@H](O)CO)C(=O)O [Fru-Met, N-(1-deoxy-D-fructose-1-yl)-L-methionine]
taste/mouthfeel compared with base [8]: more rich, cheesy, umami, astringent, sharper cheese notes, salty

O=C(O)C(CO)NCC1(O)OCC(O)C(O)C1O (centres unmarked) [Fru-Ser]
taste/mouthfeel compared with base [8]: cheesy, creamy, rich, tingling, metallic, thick, smooth
